From ChEMBL document CHEMBL1201862, “PubChem BioAssay data set” (2004)
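Compound exposure: 48 hours, 5 concentrations, 96-well plates. GI50: concentration for 50% inhibition of growth.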 Active and inactive are the calls of the source. Rule as the data show it: active = GI50 up to about 1.1 µM and inactive = higher.

Experiments:
Experiment in all cases: inhibition of tumour cell growth, NCI panel, 48 h
SK-MEL-28 = tested on: SK-MEL-28
CAKI-1 = tested on: CAKI-1
HOP-62 = tested on: HOP-62
HCT-116 = tested on: HCT-116
SF-268 = tested on: SF-268
MCF7 = tested on: MCF7
OVCAR-4 = tested on: OVCAR-4
IGROV-1 = tested on: IGROV-1
CCRF-CEM = tested on: CCRF-CEM
NCI-H23 = tested on: NCI-H23
SW-620 = tested on: SW-620
M14 = tested on: M14
NCI-H522 = tested on: NCI-H522
SF-539 = tested on: SF-539
SF-295 = tested on: SF-295
SK-MEL-5 = tested on: SK-MEL-5
MDA-MB-231 = tested on: MDA-MB-231
OVCAR-8 = tested on: OVCAR-8
SN12C = tested on: SN12C
T47D = tested on: T47D
MOLT-4 = tested on: MOLT-4
OVCAR-5 = tested on: OVCAR-5
LOX IMVI = tested on: LOX IMVI
RPMI-8226 = tested on: RPMI-8226
A549 = tested on: A549
HL-60 = tested on: HL-60
EKVX = tested on: EKVX
DU-145 = tested on: DU-145
COLO 205 = tested on: COLO 205
U-251 = tested on: U-251
HT-29 = tested on: HT-29
UO-31 = tested on: UO-31
NCI/ADR-RES = tested on: NCI/ADR-RES
SNB-19 = tested on: SNB-19
SK-MEL-2 = tested on: SK-MEL-2
Malme-3M = tested on: Malme-3M
SK-OV-3 = tested on: SK-OV-3
TK-10 = tested on: TK-10
BT-549 = tested on: BT-549
UACC-62 = tested on: UACC-62
OVCAR-3 = tested on: OVCAR-3
NCI-H460 = tested on: NCI-H460
K562 = tested on: K562
ACHN = tested on: ACHN
SR = tested on: SR
A498 = tested on: A498
HOP-92 = tested on: HOP-92
MDA-MB-435 = tested on: MDA-MB-435
RXF 393 = tested on: RXF 393
PC-3 = tested on: PC-3
KM12 = tested on: KM12
UACC-257 = tested on: UACC-257
HCT-15 = tested on: HCT-15
MDA-N = tested on: MDA-N
786-0 = tested on: 786-0
Hs-578T = tested on: Hs-578T
HCC 2998 = tested on: HCC 2998
NCI-H226 = tested on: NCI-H226
SNB-75 = tested on: SNB-75

O=P(O)(O)CCP(=O)(O)O
GI50 (SK-MEL-28): > 100 µM (inactive) | GI50 (CAKI-1): > 100 µM (inactive) | GI50 (HOP-62): > 100 µM (inactive) | GI50 (HCT-116): > 100 µM (inactive) | GI50 (SF-268): > 100 µM (inactive) | GI50 (MCF7): > 100 µM (inactive) | GI50 (OVCAR-4): > 100 µM (inactive) | GI50 (IGROV-1): > 100 µM (inactive) | GI50 (CCRF-CEM): > 100 µM (inactive) | GI50 (NCI-H23): > 100 µM (inactive) | GI50 (SW-620): > 100 µM (inactive) | GI50 (M14): > 100 µM (inactive) | GI50 (NCI-H522): > 100 µM (inactive) | GI50 (SF-539): > 100 µM (inactive) | GI50 (SF-295): > 100 µM (inactive) | GI50 (SK-MEL-5): > 100 µM (inactive) | GI50 (MDA-MB-231): > 100 µM (inactive) | GI50 (OVCAR-8): > 100 µM (inactive) | GI50 (SN12C): > 100 µM (inactive) | GI50 (T47D): > 100 µM (inactive) | GI50 (MOLT-4): > 100 µM (inactive) | GI50 (OVCAR-5): > 100 µM (inactive) | GI50 (LOX IMVI): > 100 µM (inactive) | GI50 (RPMI-8226): > 100 µM (inactive) | GI50 (A549): > 100 µM (inactive) | GI50 (HL-60): 61.1 µM (inactive) | GI50 (EKVX): > 100 µM (inactive) | GI50 (DU-145): > 100 µM (inactive) | GI50 (COLO 205): > 100 µM (inactive) | GI50 (U-251): > 100 µM (inactive) | GI50 (HT-29): > 100 µM (inactive) | GI50 (UO-31): > 100 µM (inactive) | GI50 (NCI/ADR-RES): > 100 µM (inactive) | GI50 (SNB-19): > 100 µM (inactive) | GI50 (SK-MEL-2): > 100 µM (inactive) | GI50 (Malme-3M): > 100 µM (inactive) | GI50 (SK-OV-3): > 100 µM (inactive) | GI50 (TK-10): > 100 µM (inactive) | GI50 (BT-549): > 100 µM (inactive) | GI50 (UACC-62): > 100 µM (inactive) | GI50 (OVCAR-3): > 100 µM (inactive) | GI50 (NCI-H460): > 100 µM (inactive) | GI50 (K562): > 100 µM (inactive) | GI50 (ACHN): > 100 µM (inactive) | GI50 (SR): > 100 µM (inactive) | GI50 (A498): > 100 µM (inactive) | GI50 (HOP-92): > 100 µM (inactive) | GI50 (MDA-MB-435): > 100 µM (inactive) | GI50 (RXF 393): > 100 µM (inactive) | GI50 (PC-3): > 100 µM (inactive) | GI50 (KM12): > 100 µM (inactive) | GI50 (UACC-257): 5.62 µM (inactive) | GI50 (HCT-15): > 100 µM | GI50 (MDA-N): > 100 µM (inactive) | GI50 (786-0): > 100 µM (inactive) | GI50 (Hs-578T): > 100 µM (inactive)

N/C(=N/c1ccc(O)cc1)S(=O)(=O)O
GI50 (CAKI-1): > 100 µM (inactive) | GI50 (HOP-62): > 100 µM (inactive) | GI50 (HCT-116): > 100 µM (inactive) | GI50 (SF-268): > 100 µM (inactive) | GI50 (MCF7): > 100 µM (inactive) | GI50 (OVCAR-4): > 100 µM (inactive) | GI50 (IGROV-1): > 100 µM (inactive) | GI50 (CCRF-CEM): > 100 µM (inactive) | GI50 (NCI-H23): > 100 µM (inactive) | GI50 (SW-620): > 100 µM (inactive) | GI50 (M14): > 100 µM (inactive) | GI50 (NCI-H522): > 100 µM (inactive) | GI50 (SF-539): > 100 µM (inactive) | GI50 (SF-295): > 100 µM (inactive) | GI50 (SK-MEL-5): > 100 µM (inactive) | GI50 (MDA-MB-231): > 100 µM (inactive) | GI50 (OVCAR-8): > 100 µM (inactive) | GI50 (SN12C): > 100 µM (inactive) | GI50 (HCC 2998): > 100 µM (inactive) | GI50 (T47D): > 100 µM (inactive) | GI50 (MOLT-4): > 100 µM (inactive) | GI50 (NCI-H226): > 100 µM (inactive) | GI50 (OVCAR-5): > 100 µM (inactive) | GI50 (LOX IMVI): > 100 µM (inactive) | GI50 (A549): > 100 µM (inactive) | GI50 (HL-60): > 100 µM (inactive) | GI50 (EKVX): > 100 µM (inactive) | GI50 (DU-145): > 100 µM (inactive) | GI50 (COLO 205): > 100 µM (inactive) | GI50 (U-251): > 100 µM (inactive) | GI50 (HT-29): > 100 µM (inactive) | GI50 (UO-31): > 100 µM (inactive) | GI50 (NCI/ADR-RES): > 100 µM (inactive) | GI50 (SNB-19): > 100 µM (inactive) | GI50 (SK-MEL-2): > 100 µM (inactive) | GI50 (Malme-3M): > 100 µM (inactive) | GI50 (SK-OV-3): > 100 µM (inactive) | GI50 (TK-10): > 100 µM (inactive) | GI50 (BT-549): > 100 µM (inactive) | GI50 (UACC-62): > 100 µM (inactive) | GI50 (OVCAR-3): > 100 µM (inactive) | GI50 (NCI-H460): > 100 µM (inactive) | GI50 (SNB-75): > 100 µM (inactive) | GI50 (K562): > 100 µM (inactive) | GI50 (ACHN): > 100 µM (inactive) | GI50 (SR): > 100 µM (inactive) | GI50 (A498): > 100 µM (inactive) | GI50 (HOP-92): > 100 µM (inactive) | GI50 (MDA-MB-435): > 100 µM (inactive) | GI50 (RXF 393): > 100 µM (inactive) | GI50 (PC-3): > 100 µM (inactive) | GI50 (KM12): > 100 µM (inactive) | GI50 (UACC-257): > 100 µM (inactive) | GI50 (HCT-15): > 100 µM | GI50 (MDA-N): > 100 µM (inactive) | GI50 (786-0): > 100 µM (inactive) | GI50 (Hs-578T): > 100 µM (inactive)

CN(C)c1ccc(/C=c2/c3ccccc3n3nc4ccccc4c23)cc1
GI50 (SK-MEL-28): 34.9 µM (inactive) | GI50 (CAKI-1): 28.7 µM (inactive) | GI50 (HOP-62): 49.4 µM (inactive) | GI50 (HCT-116): 16.8 µM (inactive) | GI50 (SF-268): 36.3 µM (inactive) | GI50 (MCF7): 13.8 µM (inactive) | GI50 (IGROV-1): 22.1 µM (inactive) | GI50 (CCRF-CEM): 7.98 µM (inactive) | GI50 (NCI-H23): 95.7 µM (inactive) | GI50 (SW-620): 12.8 µM (inactive) | GI50 (M14): 21.7 µM (inactive) | GI50 (NCI-H522): 5.71 µM (inactive) | GI50 (SF-539): 24.4 µM (inactive) | GI50 (SF-295): 13.2 µM (inactive) | GI50 (SK-MEL-5): 8.73 µM (inactive) | GI50 (MDA-MB-231): 47 µM (inactive) | GI50 (OVCAR-8): 39.8 µM (inactive) | GI50 (SN12C): 73.6 µM (inactive) | GI50 (T47D): 6.47 µM (inactive) | GI50 (MOLT-4): 17 µM (inactive) | GI50 (OVCAR-5): > 100 µM (inactive) | GI50 (LOX IMVI): 18.7 µM (inactive) | GI50 (RPMI-8226): 10.7 µM (inactive) | GI50 (A549): 16.3 µM (inactive) | GI50 (HL-60): 21.2 µM (inactive) | GI50 (EKVX): 44.3 µM (inactive) | GI50 (DU-145): 75.5 µM (inactive) | GI50 (COLO 205): 9.64 µM (inactive) | GI50 (U-251): 22.6 µM (inactive) | GI50 (HT-29): 13.7 µM (inactive) | GI50 (UO-31): 39.6 µM (inactive) | GI50 (NCI/ADR-RES): 11.1 µM (inactive) | GI50 (SNB-19): 76.9 µM (inactive) | GI50 (SK-MEL-2): 23.4 µM (inactive) | GI50 (Malme-3M): > 100 µM (inactive) | GI50 (SK-OV-3): 13.1 µM (inactive) | GI50 (TK-10): > 100 µM (inactive) | GI50 (BT-549): 13.8 µM (inactive) | GI50 (UACC-62): 15.3 µM (inactive) | GI50 (OVCAR-3): 28.2 µM (inactive) | GI50 (NCI-H460): 30.1 µM (inactive) | GI50 (SNB-75): 2.49 µM (inactive) | GI50 (K562): 9.53 µM (inactive) | GI50 (ACHN): 38.6 µM (inactive) | GI50 (SR): 3.34 µM (inactive) | GI50 (A498): 4.3 µM (inactive) | GI50 (HOP-92): 12.8 µM (inactive) | GI50 (MDA-MB-435): 3.35 µM (inactive) | GI50 (RXF 393): 11.9 µM (inactive) | GI50 (PC-3): 8.04 µM (inactive) | GI50 (KM12): 30.7 µM (inactive) | GI50 (UACC-257): 56 µM (inactive) | GI50 (HCT-15): 8.32 µM | GI50 (MDA-N): 3.13 µM (inactive) | GI50 (786-0): 27 µM (inactive) | GI50 (Hs-578T): 35.6 µM (inactive)
